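Cultured in 96-well plates, cells were exposed to test compound for 48 hours across five concentrations. The concentration for full growth arrest is given as TGI.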
Columns and labels:
Assay in all cases: inhibition of tumour cell growth, NCI panel, 48 h
[1] = test system: ACHN renal
[2] = test system: CCRF-CEM leukemia
[3] = test system: HCT-116 colon
[4] = test system: HCT-15 colon
[5] = test system: IGROV1 ovarian
[6] = test system: NCI-H522 lung
[7] = test system: NCI/ADR-RES ovarian
[8] = test system: PC-3 prostate
[9] = test system: SF-268 CNS
[10] = test system: SNB-19 CNS

| SMILES | TGI [1] [µM] | TGI [2] [µM] | TGI [3] [µM] | TGI [4] [µM] | TGI [5] [µM] | TGI [6] [µM] | TGI [7] [µM] | TGI [8] [µM] | TGI [9] [µM] | TGI [10] [µM] |
| --- | --- | --- | --- | --- | --- | --- | --- | --- | --- | --- |
| C/C(CC1C2CCCC1C2)=N\NC(N)=O (stereo not given) | > 100 | > 100 | > 100 | > 100 | > 100 | > 100 | > 100 | > 100 | > 100 | > 100 |
| O=c1c2cc3c(cc2[nH]c2ncccc12)OCO3 | > 10 | > 10 | > 10 | > 10 | > 10 | > 10 | > 10 | > 10 | > 10 | > 10 |
| COC(=O)[C@]12CC[C@H]3CN(C(=O)OCc4ccccc4)[C@H]([C@H]31)[C@H](c1ccco1)N2S(=O)(=O)c1ccc(C)cc1 | > 100 | > 100 | 29.2 | 30.8 | 57.1 | 45.7 | 61.2 | > 100 | 59.3 | > 100 |
| CN(C)C(=S)S | > 100 | – | > 59.9 | > 100 | > 100 | > 20.4 | > 100 | > 100 | > 100 | > 100 |
| C=C[C@@H]1C(CO)=CCC2[C@H]1CCC1C(C)(C)C(=O)CC[C@]21C (stereo not given in full) | > 100 | > 100 | > 100 | > 100 | > 100 | > 100 | > 100 | > 100 | > 100 | > 100 |
| O=C(NCCN1CCOCC1)c1ccc2cc(C(=O)N3CC(CCl)c4ccc([N+](=O)[O-])cc43)[nH]c2c1 (stereo not given) | 45.2 | > 100 | > 100 | > 100 | > 100 | 39.7 | > 100 | 48.8 | 31.3 | 28.8 |
| CCN(C(=S)N[C@@H](Cc1ccccc1)C(=O)N[C@@H](CC(C)C)C(=O)OC)c1ccccc1 | > 100 | > 100 | > 100 | > 100 | > 100 | > 100 | > 100 | > 100 | – | > 100 |
| C(=N\NC1=NCCCN1)/c1ccc2ccccc2c1 | 22.2 | 43.8 | 22.4 | 29.1 | 32.1 | 32.4 | 76.1 | 25.5 | 30.2 | 31.8 |
| O=c1oc(-c2ccc(O)c(O)c2)cc2cccc(O)c12 | > 81.7 | > 46.1 | 23.7 | > 100 | > 64.7 | > 50.8 | 51.3 | 47.3 | > 85.2 | > 76.9 |
| NNC(=O)c1ccc[n+](CCc2ccccc2)c1 | > 100 | – | > 100 | > 100 | > 100 | > 100 | > 100 | > 100 | > 100 | > 100 |
| CC1CC[C@@]2(OC1)OC1C[C@H]3[C@@H]4CC[C@H]5CC(OC6OC(CO)C(OC7OC(CO)C(O)C(O)C7OC7OC(CO)C(O)C(O)C7O)C(O)C6O)CCC5(C)[C@H]4CCC3(C)C1[C@@H]2C (stereo not given in full) | 6.06 | 4.1 | 7.34 | 20.3 | 2.15 | 5.19 | 13.8 | 1.52 | 8.77 | 10.3 |
| c1ccc2sc(SCSc3nc4ccccc4s3)nc2c1 | > 100 | > 100 | > 100 | > 100 | > 100 | > 100 | > 100 | > 100 | > 100 | > 100 |
| COc1cc(NS(C)(=O)=O)ccc1N1Cc2cnc3ccc4[nH]c(C)cc1c4c23 | > 100 | > 100 | > 100 | > 100 | > 100 | 80.7 | > 100 | > 100 | 63.4 | 32.7 |
| Brc1cccc(Nc2nc(-c3cccs3)nc3ccc(Br)cc23)c1 | 91 | > 100 | > 100 | > 100 | > 100 | 54.9 | > 100 | > 100 | > 100 | 98.7 |
| COc1ccc(C2(CC(C)O)SCCCS2)cc1 (stereo not given) | > 100 | > 100 | > 100 | > 100 | > 100 | > 100 | > 100 | > 100 | > 100 | > 100 |
| Cc1c(S(=O)(=O)/N=C(\N)Nc2ccc(Cl)cc2)sc2ccc(Cl)cc12 | 32.2 | – | 31.5 | 44.6 | 31.9 | 30.1 | 47.1 | 28.2 | 32 | 57.4 |
| O=C(/C=C/c1ccsc1)c1ccsc1 | 42.6 | 45.2 | 30.3 | 41.5 | 94.6 | – | > 100 | 35.6 | > 100 | 47.7 |
| COc1nc(C#CCC(C)O)nc(OC)n1 (stereo not given) | 33.3 | – | 43.6 | 45.6 | 42.3 | 34 | 43.5 | 54.6 | 69.6 | > 100 |
| CCN(CCO)CC1COc2ccccc2O1 (stereo not given) | > 100 | > 100 | > 100 | > 100 | > 100 | > 100 | > 100 | > 100 | > 100 | – |
| C=CCn1c(=O)ccn(COCCO)c1=O | > 100 | > 100 | – | – | > 100 | > 100 | > 100 | > 100 | > 100 | > 100 |
| O=C1C[C@H](Sc2ccccc2)C2(OCCO2)[C@@H](Sc2ccccc2)C1 | 5.62 | 1.76 | 4.81 | – | 3.49 | 1.81 | 4.92 | 13.8 | 8.83 | > 43.6 |
| O=C(N=Nc1cc(Cl)ccc1Cl)NNc1cc(Cl)ccc1Cl | – | 49.8 | 33.6 | 64.4 | 57.3 | 29.9 | 61.2 | 22.8 | – | – |
| O=C1/C(=C\c2cccc(Oc3ccccc3)c2)S(=O)(=O)C(c2ccccc2)N1Cc1ccccc1 (stereo not given) | 49.4 | > 100 | > 100 | 33.7 | – | 33.7 | 45 | > 100 | – | 55.6 |
